Results: ChEMBL document CHEMBL3867481, “GPR40 agonists for the treatment of type 2 diabetes mellitus: The biological characteristics and the chemical space” (Bioorg Med Chem Lett, 2016)

Columns and labels:
[1] = target: Free fatty acid receptor 1 (Rattus norvegicus, UniProt Q8K3T4); test: Agonist activity at rat GPR40 expressed in HEK293 cells assessed as increase in intracellular Ca2+ flux by Fluo-4-AM dye based FLIPR assay; format: functional, cell-based
[2] = target: T1, Free fatty acid receptor 1 (Homo sapiens, UniProt O14842); test: Agonist activity at human GPR40 expressed in CHO cells coexpressing NFAT BLA assessed as increase in intracellular Ca2+ flux by fluo-4-AM dye based FLIPR assay; format: functional, cell-based
T1 sequence (O14842 whole entry): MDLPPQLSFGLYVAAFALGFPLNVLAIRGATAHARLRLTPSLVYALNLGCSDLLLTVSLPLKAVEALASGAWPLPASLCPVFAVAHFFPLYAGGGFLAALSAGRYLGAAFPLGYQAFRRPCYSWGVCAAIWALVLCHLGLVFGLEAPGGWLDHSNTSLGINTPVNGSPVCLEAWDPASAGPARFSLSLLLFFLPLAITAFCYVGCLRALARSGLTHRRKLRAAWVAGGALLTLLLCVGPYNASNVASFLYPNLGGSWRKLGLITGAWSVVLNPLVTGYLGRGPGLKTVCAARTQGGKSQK

[3] = target: T1, Free fatty acid receptor 1; test: Agonist activity at flag-tagged human GPR40 expressed in HEK293 cells assessed as increase in intracellular Ca2+ flux by FLIPR assay; format: functional, cell-based
[4] = Half life in human; format: ADME
Mus musculus = test: Antidiabetic activity in po dosed albino Balb/c mouse assessed as reduction in plasma glucose AUC administered qd for 3 days measured on day 4 administered 60 mins prior to glucose challenge measured up to 60 mins post glucose challenge by intraperitoneal glucose tolerance test; format: functional
[5] = target: T1, Free fatty acid receptor 1; test: Agonist activity at human GPR40 expressed in CHOK cells assessed as increase in intracellular Ca2+ flux by Fluo-4 based assay; format: functional, cell-based
[6] = Antidiabetic activity in ZDF rat assessed as induction of glucose-stimulated insulin secretion; format: functional
Rattus norvegicus [7] = test: Antidiabetic activity in po dosed Zucker fa/fa rat assessed as reduction in plasma glucose AUC administered 1 hr prior to glucose challenge measured up to 120 mins post glucose challenge by oral glucose tolerance test; format: functional
[8] = target: T1, Free fatty acid receptor 1; test: Agonist activity at human GPR40 expressed in HEK293 cells assessed as increase in intracellular Ca2+ flux by FLIPR assay relative to linoleic acid; format: functional, cell-based
Rattus norvegicus [9] = test: Antidiabetic activity in po dosed Zucker fa/fa rat assessed as reduction in plasma glucose AUC administered for 21 days measuredon day 21 administered 1 hr prior to glucose challenge measured up to 120 mins post glucose challenge by oral glucose tolerance test; format: functional
[10] = Half life in iv or po dosed rat; format: ADME, organism-based; settings: in vivo
[11] = Half life in iv or po dosed mouse; format: ADME, organism-based; settings: in vivo
[12] = Oral bioavailability in rat; format: ADME, organism-based; settings: in vivo
[13] = Oral bioavailability in mouse; format: ADME, organism-based; settings: in vivo
[14] = Oral bioavailability in dog; format: ADME, organism-based, Canis lupus familiaris; settings: in vivo
[15] = Half life in iv or po dosed dog; format: ADME, organism-based, Canis lupus familiaris; settings: in vivo
[16] = Oral bioavailability in monkey; format: ADME, organism-based, Macaca mulatta; settings: rhesus monkey, in vivo
[17] = Half life in iv or po dosed monkey; format: ADME, organism-based, Macaca mulatta; settings: rhesus monkey, in vivo
[18] = target: T1, Free fatty acid receptor 1; test: Agonist activity at full length recombinant human GPR40 expressed in CHOK1 cells assessed as intracellular IP3 accumulation by fluorescence assay; format: functional, cell-based, CHO-K1

Sequence of Free fatty acid receptor 1 (Rattus norvegicus, UniProt Q8K3T4) (Q8K3T4 whole entry): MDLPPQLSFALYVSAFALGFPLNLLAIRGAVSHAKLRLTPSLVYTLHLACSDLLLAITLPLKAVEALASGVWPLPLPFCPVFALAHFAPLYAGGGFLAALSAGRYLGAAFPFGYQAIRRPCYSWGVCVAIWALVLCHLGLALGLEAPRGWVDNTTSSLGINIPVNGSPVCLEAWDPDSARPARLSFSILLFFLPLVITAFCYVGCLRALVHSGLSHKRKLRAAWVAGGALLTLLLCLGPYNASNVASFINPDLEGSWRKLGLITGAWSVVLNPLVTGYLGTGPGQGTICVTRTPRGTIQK

CC#C[C@@H](CC(=O)O)c1ccc(OCCOc2cccc(Cl)c2)cc1
EC50 [1]: 10 nM

Cc1cc(OC[C@H]2COC(C)(C)O2)cc(C)c1-c1cccc(COc2ccc(-c3cc(O)no3)cc2)c1C
EC50 [2]: < 300 nM

COc1ccc(C)c(N2CC[C@@H](Oc3ccc(N4N=C(C(F)(F)F)[C@@H](C)[C@@H]4CC(=O)O)cc3)[C@H](C)C2)c1
EC50 [3]: 71 nM

Cc1cc(OCCCS(C)(=O)=O)cc(C)c1-c1cccc(COc2ccc3c(c2)OC[C@H]3CC(=O)O)c1
half-life [4]: 28 to 30 h

CC#C[C@@H](CC(=O)O)c1ccc(OCc2ccc(CN3CCCc4cccc(OC)c43)s2)cc1
ED50 (Mus musculus): 1 mg/kg

CCOc1ccc(F)c(N2CC[C@@H](Oc3cnc(N4CC(OC)[C@@H](C)[C@@H]4CC(=O)O)cn3)[C@H](C)C2)c1 (stereo not given in full)
EC50 [3]: 42 nM

COc1ccc(F)c(-c2ccc(Cc3cccc(N4C[C@H](c5cccc(Cl)c5)C[C@@H]4CC(=O)O)c3)c(C)c2)c1
EC50 [3]: 10 nM

CO/N=C(\COc1ccc(COc2ccc(C(C#N)CC(=O)O)cc2)cc1)c1ccc(F)cc1 (stereo not given)
EC50 [5]: < 10 nM

O=C(O)CCc1ccc2oc(Nc3c(Cl)c(Cl)cc(Cl)c3Cl)nc2c1
EC50 [1]: 630 nM

Cc1cc(OCCO)ccc1-c1cccc(COc2ccc(Cn3oc(=O)[nH]c3=O)cc2)c1
EC50 [2]: 380 nM

Cc1cc(OCCC(C)O)cc(C)c1-c1ccc(F)c(COc2cc3c(cn2)[C@@H]2C(C(=O)O)[C@@H]2C3)c1 (stereo not given in full)
EC50 [2]: 13 nM

CC#C[C@@H](CC(=O)O)c1ccc(NC(=O)C(=O)Nc2cccc(C(C)(C)C)c2)cc1
MED [6]: 1 mg/kg | EC50 [1]: 0.4 nM

CC#C[C@@H](CC(=O)O)c1ccc(OCc2ccc3nc(-c4c(C)cccc4C)nn3c2)cc1
ED90 (Rattus norvegicus [7]): 4.1 mg/kg | Emax [8]: 76% | ED90 (Rattus norvegicus [9]): 5 mg/kg

CC#C[C@@H](CC(=O)O)c1ccc(OCc2cccc(-c3ccc(C(F)(F)F)cc3)c2)cc1
half-life [10]: 7.2 to 28 h | half-life [11]: 7.2 to 28 h | bioavailability [12]: 67 to 100% | bioavailability [13]: 67 to 100% | bioavailability [14]: 67 to 100% | half-life [15]: 7.2 to 28 h | bioavailability [16]: 67 to 100% | half-life [17]: 7.2 to 28 h

Cc1cc(OCC2CCOC2)cc(C)c1-c1cccc(COc2ccc(C3(CC(=O)O)COC3)cc2)c1 (stereo not given)
EC50 [18]: < 100 nM
